The record followed here is US4065620A, “3-(Substituted) vinyl cephalosporins” (Eli Lilly and Company, priority 1971, dated 1977).

Values after ≈ are worked out from the molar mass of the structure shown.

Format in all cases: cell-based
In series [1] the test system is penicillin-resistant Staphylococcus aureus strain V-41. In words: Gradient plate in vitro MIC, strain V41. The conditions noted are these: V41, G+, read-out: minimum inhibitory concentration (MIC). The source says:
(§1) The data which follow are minimum inhibitory concentrations (MIC) in micrograms of compound per milliliter of agar medium in standard gradient plate in vitro tests against various Gram positive and Gram negative microorganisms. The data given here are for compounds satisfying the general formula [drawing 25] where R and X are as defined in the table which follows:
(§2) 1. The gradient plate procedure used is essentially that described by
(§3) Bryson and Szybalski in 1952 (Science, 116, pp. 45-46). The inoculum
(§4) treatment method used for penicillin-resistant Staphlococci was reported
(§5) by Godzeski et al. in Antimicrobial Agents and Chemotherapy, May, 1961,
(§6) 2. Gram positive microorganism identifications are all
(§7) penicillin-resistant Staphylococcus aureus strains V-41, V-32, X-400,
(§8) V-84. X-400 is also Methicillin-resistant.

Series [2] concerns penicillin-resistant Staphylococcus aureus strain V-32. In words: Gradient plate in vitro MIC, strain V32. The conditions noted are these: V32, G+; for MIC: Staphylococcus aureus, read-out: minimum inhibitory concentration (MIC).
Text: as §1, §2, §3, §4, §5, §6, §7, §8

Series [3] relates to penicillin-resistant, Methicillin-resistant Staphylococcus aureus strain X-400. Put plainly: Gradient plate in vitro MIC, strain X400. The conditions noted are these: X400, G+, penicillin- and Methicillin-resistant; for MIC: Staphylococcus aureus, read-out: minimum inhibitory concentration (MIC).
Text: as §1, §2, §3, §4, §5, §6, §7, §8

Series [4] has as its system penicillin-resistant Staphylococcus aureus strain V-84. In words: Gradient plate in vitro MIC, strain V84. The conditions noted are these: V84, G+; for MIC: Staphylococcus aureus, read-out: minimum inhibitory concentration (MIC).
Text: as §1, §2, §3, §4, §5, §6, §7, §8

The subject of another series is Schigella sp. N-9. In words: Gradient plate in vitro MIC, N9. The conditions noted are these: N9, G-; for MIC: read-out: minimum inhibitory concentration (MIC).
Text: as §1, §2, §3

A further series concerns Escherichia coli N-10. Put plainly: Gradient plate in vitro MIC, N10. The conditions noted are these: N10, G-; for MIC: Escherichia coli, read-out: minimum inhibitory concentration (MIC).
Text: as §1, §2, §3
(§9) 3. Gram negative microorganism identifications:
N-10 is Escherichia coli

For series [5], the system named is Klebsiella pneumonia X-26. In words: Gradient plate in vitro MIC, X26. The conditions noted are these: X26, G-; for MIC: Klebsiella pneumoniae, read-out: minimum inhibitory concentration (MIC).
Text: as §1, §2, §3, §9
X-26 is Klebsiella pneumonia

The subject of series [6] is Enterobacter aerogenes X-68. Put plainly: Gradient plate in vitro MIC, X68. The conditions noted are these: X68, G-; for MIC: Klebsiella aerogenes, read-out: minimum inhibitory concentration (MIC).
Text: as §1, §2, §3, §9
X-68 is Enterobacter aerogenes

The subject of series [7] is Salmonella heidellberg X-514. In words: Gradient plate in vitro MIC, X514. The conditions noted are these: X514, G-; for MIC: Salmonella, read-out: minimum inhibitory concentration (MIC).
Text: as §1, §2, §3, §9
X-514 is Salmonella heidellberg

For series [8], the system named is Pseudomonas aerogenosa X-528. In words: Gradient plate in vitro MIC, X528. The conditions noted are these: X528, G-; for MIC: Pseudomonas, read-out: minimum inhibitory concentration (MIC).
Text: as §1, §2, §3, §9
X-528 is Pseudomonas aerogenosa

In a further series the test system is Serratia marcescens X-99. In words: Gradient plate in vitro MIC, X99. The conditions noted are these: X99, G-; for MIC: Serratia marcescens, read-out: minimum inhibitory concentration (MIC).
Text: as §1, §2, §3, §9
X-99 is Serratia marcescens

A further series deals with B. subtilis. Put plainly: Bioautograph test against B. subtilis. The conditions noted are these: at 1 microgram/milliliter. On the procedure: Each of the cis-and trans-isomers of tert-butyl 3-(2'-cyanovinyl)-7-phenoxyacetamido-3-cephem-4-carboxylate from Example 17 was in turn treated with 98-100 percent formic acid for 1 hour at room temperature to cleave the tert-butyl ester groups therefrom. After evaporation under reduced pressure of the excess formic acid, the acid residue was separated as an oil.

In series [9] the test system is Gram positive and Gram negative microorganisms. In words: Standard gradient plate assay, Gram positive and Gram negative microorganisms.
Text: as §1, §2, §3

A further series has as its system Sarcina lutea. Put plainly: Bioautograph against Sarcina lutea. On the procedure:
(§10) A solution of 25 mg. of tert-butyl 7-(2'-tert-butoxycarbonylamino-2'-phenylacetamido)-3-(2'-tert-butoxycarbonylvinyl)-3-cephem-4-carboxylate, prepared as described in Example 19, in 5 cc of 98-100 percent formic acid was allowed to stand for 1 hour at room temperature. After evaporating under reduced pressure the formic acid, the acid residue was taken up in trifluoroacetic acid and the NMR spectrum was taken.

In series [10] the test system is Gram positive and Gram negative microorganisms. In words: Disc plate assay. The conditions noted are these: variety of Gram positive and Gram negative microorganisms. On the procedure: as §10

For the compound `CCOC(=O)C=CC1=C(C(=O)O)N2C(=O)C(NC(=O)Cc3cccs3)C2SC1` (stereo not shown), the MIC in [1] is 6.2 µg/mL (≈ 14.7 µM); in [2] it was 7.5 µg/mL (≈ 17.8 µM); in [3] it was over 20 µg/mL; in series [4] it was 7.1 µg/mL (≈ 16.8 µM); with Schigella sp. N-9, 2.6 µg/mL (≈ 6.15 µM); in the series with Escherichia coli N-10, 3.8 µg/mL (≈ 8.99 µM). For the same compound, the MIC in series [5] was 5.3 µg/mL (≈ 12.5 µM); in [6], 3.3 µg/mL (≈ 7.81 µM); in series [7] it was 4.7 µg/mL (≈ 11.1 µM); in [8], over 50 µg/mL; in the series with Serratia marcescens X-99, over 50 µg/mL.

Take `O=C(O)C=CC1=C(C(=O)O)N2C(=O)C(NC(=O)[C@H](O)c3ccccc3)C2SC1` (stereo partly shown): the MIC in series [1] is over 20 µg/mL; in series [2] it was over 20 µg/mL; in series [3], over 20 µg/mL; in series [4] it was 11.2 µg/mL (≈ 27.7 µM); with Schigella sp. N-9 it was 3.3 µg/mL (≈ 8.16 µM); in the series on Escherichia coli N-10, 5.7 µg/mL (≈ 14.1 µM). For the same compound, the MIC was 5 µg/mL (≈ 12.4 µM) in series [5]; 1 µg/mL (≈ 2.47 µM) in series [6]; 0.6 µg/mL (≈ 1.48 µM) in [7]; over 50 µg/mL in series [8]; over 50 µg/mL with Serratia marcescens X-99.

Turning to “3-(2-cyanovinyl)-7-phenoxyacetamido-3-cephem-4-carboxylic acid”, the “minimum inhibitory concentration (MIC)” value is recorded as 6.1 micrograms of compound per mil in series [2]; > 20 micrograms of compound per mil in series [3]; 3.8 micrograms of compound per mil in [4]; 40.4 micrograms of compound per mil with Schigella sp. N-9; 102.0 micrograms of compound per mil with Escherichia coli N-10; 110.0 micrograms of compound per mil in series [5]. Also, the “minimum inhibitory concentration (MIC)” value in [6] is recorded as 38.2 micrograms of compound per mil; in series [7], 12.1 micrograms of compound per mil; in [8], 162.0 micrograms of compound per mil; with Serratia marcescens X-99 it was 21.0 micrograms of compound per mil.

On to `N#C/C=C\C1=C(C(=O)O)N2C(=O)C(NC(=O)COc3ccccc3)C2SC1` (single isomer, unassigned; isomer 3) [Example 20 cis-isomer, 3-(2-cyanovinyl)-7-phenoxyacetamido-3-cephem-4-carboxylic acid], for which, in the series with B. subtilis, the “antibiotic activity zone on bioautograph” value is on record as “large antibiotic activity zone”.

Take `N#C/C=C/C1=C(C(=O)O)N2C(=O)C(NC(=O)COc3ccccc3)C2SC1` (single isomer, unassigned; isomer 3) [Example 20 trans-isomer, 3-(2-cyanovinyl)-7-phenoxyacetamido-3-cephem-4-carboxylic acid]: the “gradient plate MIC, trans-isomer compared with cis-isomer” value in series [9] (against both Gram positive and Gram negative microorganisms) is given as “more active than the cis-isomer”. Besides, the “antibiotic activity zone on bioautograph” value in the series on B. subtilis is “large antibiotic activity zone”.

With `O=C(O)C=CC1=C(C(=O)O)N2C(=O)C(NC(=O)C(C(=O)O)c3ccccc3)[C@H]2SC1` (stereo partly shown) [7-(2'-carboxy-2'-phenylacetamido)-3-(2'-carboxyvinyl)-3-cephem-4-carboxylic acid], the MIC is over 20 µg/mL in [1]; over 20 µg/mL in series [2]; over 20 µg/mL in series [3]; over 20 µg/mL in [4]; 7 µg/mL (≈ 16.2 µM) with Schigella sp. N-9; 36.5 µg/mL (≈ 84.4 µM) with Escherichia coli N-10. Further, the MIC in [5] is 35 µg/mL (≈ 80.9 µM); in [6] it was 2 µg/mL (≈ 4.63 µM); in series [7], 1 µg/mL (≈ 2.31 µM); in series [8], 29.5 µg/mL (≈ 68.2 µM); in the series with Serratia marcescens X-99 it was under 8 µg/mL.

Regarding `CCOC(=O)C=CC1=C(C(=O)O)N2C(=O)C(NC(=O)C(C(=O)O)c3ccccc3)[C@H]2SC1` (stereo partly shown) [7-(2'-carboxy-2'-phenylacetamido)-3-(2'-ethoxycarbonylvinyl)-3-cephem-4-carboxylic acid], the MIC was 7.9 µg/mL (≈ 17.2 µM) in [1]; 10.3 µg/mL (≈ 22.4 µM) in [2]; over 20 µg/mL in series [3]; 11.4 µg/mL (≈ 24.8 µM) in series [4]; 1 µg/mL (≈ 2.17 µM) in the series with Schigella sp. N-9; 6.3 µg/mL (≈ 13.7 µM) with Escherichia coli N-10. The MIC in series [5] stood at 2.5 µg/mL (≈ 5.43 µM); in [6], 3 µg/mL (≈ 6.52 µM); in [7], 0.8 µg/mL (≈ 1.74 µM); in [8], 42.2 µg/mL (≈ 91.6 µM); in the series with Serratia marcescens X-99, 0.6 µg/mL (≈ 1.3 µM).

Consider `CCOC(=O)C=CC1=C(C(=O)O)N2C(=O)C(NC(=O)COc3ccccc3)[C@H]2SC1` (stereo partly shown) [Example 3, 3-(2'-ethoxycarbonylvinyl)-7-phenoxyacetamido-3-cephem-4-carboxylic acid], for which the “activity as an antibiotic in gradient plate tests” value in series [9] (variety of both Gram positive and Gram negative microorganisms) is given as “showed activity as an antibiotic”.

For `NC(C(=O)NC1C(=O)N2C(C(=O)O)=C(C=CC(=O)O)CS[C@H]12)c1ccccc1` (stereo partly shown) [Example 23, 7-(2'-amino-2'-phenylacetamido)-3-(2'-carboxyvinyl)-3-cephem-4-carboxylic acid], the “antibiotically active zone on bioautograph” value in the series with Sarcina lutea (acid residue after formic acid/trifluoroacetic acid) is “only one antibiotically active zone”. In the series on Sarcina lutea (compared with cephalexin), the “polarity of the active zone on the bioautograph” value is on record as “more polar than cephalexin”. Further, the “antibiotic activity in disc plate assay” value in [10] was “antibiotic activity”.
